Data set [1] relates to pAKT (Ser473). Description: pAKT (Ser473) western blot in SK-N-Be2 cells. The format is cell-based, human. The note with it: growth factor induced. From the text: Membranes were blocked using Odyssey Blocking Buffer (LI-COR) for 1 hr at room temperature. […] Primary antibodies used in these studies include: MycN (CST; 1:500 dilution), Actin (SCBT; 1:2000 dil.), cMYC (CST; 1:500 dil.), pAKT (S473; CST; 1:500 dil.), AKT (CST; 1:2000), pP70 (T389; CST; 1:1000) P70 (CST; 1:1000).
We first tested whether isopomiferin disrupted […] signaling in NBL by treating SK-N-Be2 cells to isopomiferin and blotting for pAKT abundance. Treatment with […] (EGF) induces pAKT1 through mTOR signaling. We tested whether isopomiferin had the ability to disrupt mTOR signaling by pre-treating cells with isopomiferin for 2 hrs, following which cells were treated with 10 ng/ml EGF for 30 minutes to induce pAKT1. […] Total AKT abundance was used as a loading control to confirm that isopomiferin was simply not suppressing expression of AKT abundance.
A general note: A western blot detects proteins with antibodies after separation by electrophoresis.

In data set [2] the test system is CCL5 transcript. Description: qPCR of CCL5 transcript in A549 cells. The conditions noted are these: 48 hr. The format is cell-based. The protocol:
Reverse transcription quantitative polymerase chain reaction (RT-qPCR) was used to quantify transcript abundance of genes of interest. Total RNA was isolated from cells using the Qiaquick RNeasy isolation kit following manufacturer's instruction (QIAGEN). RNA quality and abundance was measured using a nanodrop spectrophotometer. A total of 2 μg RNA was used as a template for reverse transcription reactions. cDNA synthesis was performed using TaqMan reverse transcriptase following the manufacturer's instructions, using both oligod(T) and random hexamers as primers for RT reactions. RNAse treatment of cDNA removed any residual RNA in cDNA samples. cDNA samples were diluted 10-fold into nuclease-free dH2O, and used as the template for quantitative PCR reactions were performed in a Viia7 […] thermocycler using SYBR green and gene-specific primers (Table 1). qPCR reactions were performed using the Viia7 Real-Time PCR system (Applied Biosystems), and relative transcript abundance evaluated using the deltaCT method, using the GAPDH housekeeping gene as normalization control.
In lung cancer, cMyc overexpression suppresses CCL5, an antigen that enables the immune system to detect cancer cells (Topper et al. 2017). By suppressing CCL5, cMyc enables tumors to evade immune surveillance (Topper et al. 2017). […]
Background: In qPCR the cycle at which signal appears reflects the starting amount.

Data set [3] is described as follows: Stability in mouse plasma. The format is in vitro ADME. The note with it: 4 h incubation, 20 μM. The protocol:
Mouse plasma was diluted with 100 mM PBS buffer at 7.4 pH and at a 1:1 ratio, and warmed to 37° C. Test compounds were added to the plasma solution at 20 μM and incubated for the indicated time point. Reactions was quenched by aliquoting 15 μL of solution into 60 μL ice-cold acetonitrile containing an internal standard. Compounds were quantified by LC-MS, as detailed above.

Structures are written as SMILES.

In the case of `CC1(C)C=Cc2c(c3c(c4c(=O)c(-c5ccc(O)c(O)c5)coc24)OC(C)(C)CC3)O1` [isopomiferin], the “pAKT accumulation / AKT (Ser473) phosphoactivation” value was “blocked pAKT accumulation in presence of EGF treatment” in data set [1] and “inhibited phosphorylation of P70^S6K, as well as the IGF1-induced phosphoactivation of AKT (Ser473)” in data set [1] (listed as Isopomiferin). In addition, the “increase of CCL5 transcript” value in data set [2] was 15 fold.
As for `CC(C)=CCc1c2c(c3occ(-c4ccc(O)c(O)c4)c(=O)c3c1O)C=CC(C)(C)O2` [pomiferin], the “compound remaining in mouse plasma” value in data set [3] is “approximately 75%”.

The record behind these values is US20220119399A1, “COMPOUNDS AND COMPOSITIONS THAT CAUSE MYCN AND/OR CMYC DEGRADATION AND METHODS OF USE THEREOF” (THE TRUSTEES OF COLUMBIA UNIVERSITY IN THE CITY OF NEW YORK, priority 2018, published 2022).
